Tests used:
[1] = test system: glutaminase activity in mitochondria isolated from breast cancer cell lines; assay: Mitochondrial glutaminase activity assay; type: biochemical, human
Source text: Breast cancer cells were fractionated into cytosolic, mitochondrial, and nuclear components via partial lysis and centrifugation using the Qproteome Mitochondria Isolation Kit (Qiagen). For all samples, a portion of the starting material (i.e. whole cells) was retained for comparison with the isolated fractions. When cellular fractions were to be analyzed only by western blot, a single 10 cm dish of exponentially growing cells was used. When mitochondria were isolated for glutaminase assays, two 15 cm dishes of exponentially growing cells were used.
A two-reaction protocol was used to measure mitochondrial glutaminase activity. […] The reaction was then quenched by addition of 10 μl of 2.4 M HCl, and samples placed on ice. Next, 20 μl of quenched Reaction Mix 1 was added to 200 μl of Reaction Mix 2 (1 unit bovine liver glutamate dehydrogenase (Sigma-Aldrich), 80 mM Tri-HCl pH 9.4, 200 mM hydrazine, 0.25 mM ADP, 2 mM NAD) and samples were incubated for 1 hour at room temperature. The absorbance at 340 nm was then measured against a matched sample in which heat-inactivated mitochondria (immersed in boiling water for 5 minutes) were used. A standard curve was prepared using given concentrations of glutamate in Reaction Mix 2, allowing the amount of glutamate produced in Reaction 1 to be determined.

breast cancer cell lines = assay: 6-day cell proliferation assay, collection of breast cancer cell lines; type: cell-based, human
Description: Human breast cancer cell lines MCF7, BT-474, T-47D, MDA-MB-453, MDA-MB-231, Hs 578T, HCC38, SK-BR-3, and DU4475 were purchased from the American Type Culture Collection (ATCC) and no additional cell authentication was performed. The TSE human breast cancer cell line was supplied by Dr. Steven Abcouwer (University of Michigan). All breast cancer cells were cultured at 37° C. under a 5% CO2 atmosphere in RPMI 1640 medium containing 2 mM glutamine (Gibco) and supplemented with 10% fetal bovine serum (FBS) (Gibco). The 293T cell line (ATCC) used for generating lentivirus particles was cultured as above but using DMEM, high glucose (Gibco).
Culture medium was added to 12-well plates (1 ml/well) and wells were seeded with cells at Day 0 as follows. MCF7, T-47D, BT-474, HCC38 cells: […] cells/well. MDA-MB-453 and MDA-MB-231 cells: 1×10^4 cells/well. TSE and Hs 578T cells: 0.3×10^4 cells/well. After 16 hours, culture medium was replaced with fresh medium supplemented with appropriate concentrations of inhibitors and was subsequently replaced every 48 hours. On Day 6 cells were trypsinized and suspended in an appropriate volume of culture medium, and the total number of cells per well was determined using a hemocytometer or a TC20 Automated Cell Counter (Bio-Rad).

[2] = Gross toxicity in treated mice; type: in vivo; conditions: 10 mg/kg body weight, three times weekly for three weeks
Description: All experiments involving mice were carried out according to protocols approved by the Institutional Animal Care and Use Committee at Cornell University. In all cases, 6-8 week old female NOD.Cg-Prkdcscid Il2rg^tm1Wjl/SzJ (NSG) mice (The Jackson Laboratory) were used. For xenograft experiments, a suspension of MDA-MB-453 breast cancer cells (or derivative cell lines stably expressing shRNAs) was mixed 1:1 with Matrigel Matrix (BD Biosciences) to give a final concentration of 3×10^6 cells per 100 μl, and 3×10^6 cells were immediately injected into each of the two flanks of 6-8 week old female NOD.Cg-Prkdc^scid Il2rg^tm1Wjl/SzJ (NSG) mice (n=3 mice per condition). Tumor sizes were measured using calipers, and estimated volumes were calculated using the formula V=(π/6)×length×width^2, as described previously (Tomayko et al., “Determination of Subcutaneous Tumor Size in Athymic (Nude) Mice,” Cancer Chemother Pharmacol. 24:148-154 (1989), which is hereby incorporated by reference in its entirety). For experiments using MDA-MB-453 cells stably expressing shRNAs, mice were sacrificed after 6 weeks. For 968 treatment studies, when tumors of 1-2 mm diameter were detected, the mice were randomly divided into two groups and intraperitoneal (IP) injections of 968 (10 mg/kg) solution or carrier solution were initiated and carried out three times weekly. […]

[3] = target: T1, recombinant full-length human GLS (GAC splice variant) (Homo sapiens, UniProt O94925); conditions: previously reported (Wang et al. 2010); cited from earlier work
T1 construct: processed forms of human GAC (residues 72 to 598); inferred from pQE80 vector and Ni-NTA/imidazole purification; made in house; host or cells: E. coli BL21(DE3)
T1 sequence (O94925 72-598 isoform O94925-3): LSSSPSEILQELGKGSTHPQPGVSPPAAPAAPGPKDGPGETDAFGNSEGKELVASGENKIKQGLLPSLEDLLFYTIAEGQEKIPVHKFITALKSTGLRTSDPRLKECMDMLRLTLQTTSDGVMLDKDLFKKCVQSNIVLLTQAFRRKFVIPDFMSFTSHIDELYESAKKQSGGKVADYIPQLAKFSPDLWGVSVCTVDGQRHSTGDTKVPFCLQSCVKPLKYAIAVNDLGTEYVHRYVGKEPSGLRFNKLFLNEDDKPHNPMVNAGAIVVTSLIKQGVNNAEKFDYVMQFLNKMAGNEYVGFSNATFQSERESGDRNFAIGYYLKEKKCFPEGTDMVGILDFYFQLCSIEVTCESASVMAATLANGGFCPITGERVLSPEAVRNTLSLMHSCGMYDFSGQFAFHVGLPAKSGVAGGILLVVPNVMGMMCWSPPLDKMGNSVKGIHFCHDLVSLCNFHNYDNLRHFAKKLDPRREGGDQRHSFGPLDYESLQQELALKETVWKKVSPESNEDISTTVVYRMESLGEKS

[4] = target: T1, recombinant full-length human GLS (GAC splice variant); assay: Real-time recombinant glutaminase activity assay, GLS; type: biochemical; conditions: different concentrations
Description: Real-time monitoring of glutaminase activity through NADH production was performed on a Cary Eclipse fluorescence spectrometer. The excitation and emission wavelengths were set at 340 nm and 460 nm, respectively. […] Then, 100 μl of either 100 nM GAC or 500 nM GLS2 was added to this mixture and the fluorescence emission was monitored in real time. After 30 s, 200 μl of a mixture of glutamine and K2HPO4 was added such that the final concentrations of K2HPO4 and glutamine were 100 mM and 20 mM, respectively. The initial velocity of glutamine hydrolysis was obtained from the slopes of the linear portion of the kinetic curve.

| Structure (SMILES) | inhibition of mitochondrial glutaminase activity ([1]; mitochondria from MDA-MB-453 cells) | inhibition of mitochondrial glutaminase activity ([1]; mitochondria from basal-subtype cells, 10 μM) | inhibition of mitochondrial glutaminase activity ([1]; mitochondria from luminal-subtype breast cancer cells) | EC50 (breast cancer cell lines; breast cancer cells, 6 days) [µM] | maximal inhibition (breast cancer cell lines; cells with highest expression of GLS) | toxicity [2] | binding and inhibition of GLS splice variant GAC [3] | inhibition of recombinant GLS activity [4] |
| --- | --- | --- | --- | --- | --- | --- | --- | --- |
| O=C(Cc1ccccc1)Nc1nnc(CCSCCc2nnc(NC(=O)Cc3ccccc3)s2)s1 [BPTES] | no effect on activity | almost completely abolished | only partially inhibited | – | – | – | – | – |
| CN(C)c1ccc(C2Nc3ccc4ccccc4c3C3=C2C(=O)CC(C)(C)C3)cc1Br (centres unmarked) [Compound 968] | – | – | – | 3 to 5 | 70-75% | no gross evidence of toxicity | binds and inhibits | inhibited |

Source: patent US20250275964A1, “METHODS OF INHIBITING LIVER-TYPE GLUTAMINASE, GLS2” (CORNELL UNIVERSITY, priority 2019, published 2025)
